Measured values published in PubChem BioAssay AID687005 (Broad Institute, 2013).
Records with an inconclusive call do not appear. Active and inactive are the calls of the source.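 Rule for the calls: active = Compounds that reduce signal, with fitted half-maximal dose at or under twice the top valid tested dose; inconclusive = Poor fit, or flat curve losing 30 to 70% of signal; inactive = Potency past limit, flat within 30%, or opposite direction.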

Experiment: HEK293T cell cytotoxicity, dose response, cytotoxicity control, ATP luminescence, cherry-pick samples (AID 687005)
Conditions: HEK293T viability, ATP luminescence (CellTiter-Glo), 48 h; at 23.5 µM (top of the series)
In the case of `Cc1cc(C(=O)Nc2ccc3c(c2)C(=O)N(C)[C@H]2CC[C@@H](CC(=O)N[C@@H](C)c4ccccc4)O[C@H]2CO3)no1`, the activity change, negative = cytotoxicity is reported as -36.7% (inactive). For `C[C@H](CO)N1C[C@H](C)[C@H](CN(C)Cc2cccc(C(F)(F)F)c2)OCc2cnnn2CCCC1=O`, the activity change, negative = cytotoxicity was 0.8% (inactive). In the case of `Cc1cc(C(=O)Nc2cccc3c2O[C@@H](CN(C)S(=O)(=O)c2ccccc2)[C@@H](C)CN([C@@H](C)CO)C3=O)n(C)n1`, the activity change, negative = cytotoxicity is reported as -20.3% (inactive). In the case of `C[C@@H]1CCCCO[C@@H](CN(C)C(=O)Nc2ccc3c(c2)OCO3)[C@@H](C)CN([C@H](C)CO)C(=O)c2cc(NC(=O)Nc3cccc4ccccc34)ccc2O1`, the activity change, negative = cytotoxicity is reported as -9.79% (inactive). With `COC(=O)C1=C(C)N(Cc2ccc(Cl)cc2)C(=S)NC1c1ccc(Br)cc1` (stereo not drawn) the activity change, negative = cytotoxicity was -20.4% (inactive). In the case of `CNC(=O)C[C@H]1CC[C@H]2[C@H](COc3ccc(NC(=O)c4cc(C)on4)cc3C(=O)N2C)O1`, the activity change, negative = cytotoxicity is reported as -23.4% (inactive).

Same assay, conditions: HEK293T viability, ATP luminescence (CellTiter-Glo), 48 h; at 26 µM (top of the series)
In the case of `COCC(=O)NC[C@H]1N[C@H](CO)[C@@H]1c1ccc(C2=CCCC2)cc1`, the activity change, negative = cytotoxicity is reported as 16.1% (inactive). In the case of `CC(C)CC#Cc1cnc2c(c1)C(=O)N([C@H](C)CO)C[C@@H](C)[C@@H](CN(C)C(=O)c1ccc3c(c1)OCO3)O2`, the activity change, negative = cytotoxicity is reported as 33.9% (inactive). For `C[C@@H]1CN([C@H](C)CO)C(=O)c2cc(-c3ccc(C#N)cc3)cnc2O[C@@H]1CN(C)C(=O)Nc1ccc(F)cc1`, the activity change, negative = cytotoxicity was -0.869% (inactive). In the case of `C[C@@H](NC(=O)C[C@H]1CC[C@@H](NC(=O)Cc2ccccn2)[C@@H](CO)O1)c1ccccc1`, the activity change, negative = cytotoxicity is reported as -16.9% (inactive). In the case of `COc1ccc(C(=O)NC(=S)Nc2ccccc2N2CCOCC2)cc1[N+](=O)[O-]`, the activity change, negative = cytotoxicity is reported as -32.3% (inactive). For `CC(C)NC(=O)Nc1ccc2c(c1)CC(=O)N([C@H](C)CO)C[C@H](C)[C@@H](CN(C)C(=O)Nc1ccc3c(c1)OCO3)O2`, the activity change, negative = cytotoxicity was 31.9% (inactive). With `C[C@H]1CN([C@@H](C)CO)C(=O)c2cc(-c3ccc(F)cc3)cnc2O[C@@H]1CN(C)CC1CCCCC1` the activity change, negative = cytotoxicity was -16.9% (inactive). With `CNC(=O)CSc1ncnc2c1cnn2-c1ccccc1` the activity change, negative = cytotoxicity was 10.1% (inactive). In the case of `COc1cc(C(=O)Oc2ccccc2N)cc(OC)c1OC`, the activity change, negative = cytotoxicity is reported as 1.38% (inactive). With `O=C1CCC(C(=O)Nc2cccc(C(F)(F)F)c2)N1` (stereo not drawn) the activity change, negative = cytotoxicity was 22% (inactive). In the case of `CCC(=O)N1C[C@H](O)COC[C@@H]2O[C@@H](CC(=O)NCc3ccccc3Cl)CC[C@H]21`, the activity change, negative = cytotoxicity is reported as 1.37% (inactive). With `C[C@@H]1CN([C@@H](C)CO)C(=O)Cc2cc(NC(=O)Nc3cccc4ccccc34)ccc2O[C@@H]1CN(C)Cc1ccc(C(=O)O)cc1` the activity change, negative = cytotoxicity was 30.4% (inactive). For `COc1ccc(CN(C)C[C@@H]2Oc3c(NC(=O)Nc4cccc5ccccc45)cccc3C(=O)N([C@@H](C)CO)C[C@@H]2C)cc1`, the activity change, negative = cytotoxicity was -9.75% (inactive). With `O=C(Nc1ccc(F)cc1)N1C[C@H]2[C@@H](c3ccccc31)[C@@H](CO)N2Cc1cocn1` the activity change, negative = cytotoxicity was -16.4% (inactive). With `COC(=O)C1=C(C)N(Cc2ccc(Cl)cc2)C(=S)NC1c1cccc(OC)c1` (stereo not drawn) the activity change, negative = cytotoxicity was -34.3% (inactive). In the case of `C/C=C/c1ccc([C@@H]2[C@@H](C#N)N(S(=O)(=O)c3cccc(F)c3)[C@@H]2CO)cc1`, the activity change, negative = cytotoxicity is reported as 4.72% (inactive). With `CC(=O)N(C)C[C@H]1Oc2cc(C#Cc3ccc(F)cc3)ccc2S(=O)(=O)N([C@H](C)CO)C[C@@H]1C` the activity change, negative = cytotoxicity was 53% (inactive). With `CCNC(=O)C[C@H]1CC[C@H](NC(=O)NC2CCCCC2)[C@@H](CO)O1` the activity change, negative = cytotoxicity was -1.55% (inactive). With `CC(C)NC(=O)Nc1ccc2c(c1)C(=O)N([C@H](C)CO)C[C@H](C)[C@H](CN(C)Cc1ccncc1)OCCCC[C@H](C)O2` the activity change, negative = cytotoxicity was -57.3% (inactive). For `C/C=C/c1ccc([C@@H]2[C@@H](CNC(=O)c3ccccc3)N(C(C)=O)[C@H]2CO)cc1`, the activity change, negative = cytotoxicity was 13.1% (inactive). For `C[C@@H]1CN([C@H](C)CO)C(=O)Cc2cc(NC(=O)CCCCCC(=O)Nc3ccccc3N)ccc2O[C@H]1CN(C)C(=O)Nc1ccccc1`, the activity change, negative = cytotoxicity was 0.594% (inactive). In the case of `COCC(=O)N1C[C@H](C)[C@H](OC)CN(C)C(=O)c2ccc(NC(=O)NC(C)C)cc2OC[C@@H]1C`, the activity change, negative = cytotoxicity is reported as 37.2% (inactive). In the case of `C[C@H](NC(=O)C[C@H]1CC[C@@H](NC(=O)Cc2ccccn2)[C@@H](CO)O1)c1ccccc1`, the activity change, negative = cytotoxicity is reported as 25.6% (inactive). For `C[C@H]1CN([C@@H](C)CO)C(=O)c2cccc(NS(=O)(=O)c3cn(C)cn3)c2O[C@@H]1CN(C)CC1CCCCC1`, the activity change, negative = cytotoxicity was -5.42% (inactive). For `CCNC(=O)Nc1ccc2c(c1)C(=O)N(C)[C@H]1CC[C@H](CC(=O)Nc3ccccc3F)O[C@@H]1CO2`, the activity change, negative = cytotoxicity was 46.5% (inactive). In the case of `Cc1ccc(C(=O)NC(=S)Nc2ccccc2N2CCCC2)cc1[N+](=O)[O-]`, the activity change, negative = cytotoxicity is reported as -8.33% (inactive). For `CC=Cc1ccc2n(c1=O)C[C@@H]1[C@@H](CO)[C@H](C(=O)NCc3ccc4c(c3)OCO4)[C@H]2N1C(=O)C1CC1` (mixture of isomers), the activity change, negative = cytotoxicity was -8.54% (inactive). With `C/C=C/c1ccc2c(c1)O[C@H](CN(C)S(=O)(=O)c1ccccc1)[C@H](C)CN([C@@H](C)CO)S2(=O)=O` the activity change, negative = cytotoxicity was -8.59% (inactive). For `O=C(C[C@@H]1CC[C@@H]2[C@H](COC[C@H](O)CN2Cc2cccc(C(F)(F)F)c2)O1)NCc1ccccc1`, the activity change, negative = cytotoxicity was 4.02% (inactive). For `O=C(N[C@H]1CC[C@H](CCn2cc(-c3ccccn3)nn2)O[C@H]1CO)c1ccc(F)cc1`, the activity change, negative = cytotoxicity was -9.35% (inactive). With `C[C@H]1CN([C@@H](C)CO)C(=O)c2cccc(N(C)C)c2O[C@@H]1CN(C)C(=O)Nc1cccc2ccccc12` the activity change, negative = cytotoxicity was -6.36% (inactive). In the case of `Cc1cc(C)c2nc(N3CCN(C(=O)c4cccs4)CC3)sc2c1`, the activity change, negative = cytotoxicity is reported as -19.8% (inactive). With `O=C(Nc1ccc(F)cc1)N1C[C@@H]2[C@H](c3ccccc31)[C@H](CO)N2Cc1cocn1` the activity change, negative = cytotoxicity was -11.6% (inactive). In the case of `O=C(C[C@H]1CC[C@H]2[C@@H](COC[C@H](O)CN2Cc2cc(F)cc(F)c2)O1)Nc1nccs1`, the activity change, negative = cytotoxicity is reported as 0.29% (inactive). With `C[C@H](CO)N1C[C@H](C)[C@@H](CN(C)Cc2ccncc2)Oc2ccc(NC(=O)CCC(F)(F)F)cc2C1=O` the activity change, negative = cytotoxicity was -2.07% (inactive). For `Cc1noc(C)c1NC(=O)Nc1ccc2c(c1)C(=O)N([C@H](C)CO)C[C@@H](C)[C@H](CN(C)C(=O)Nc1ccc(F)cc1)OCCCC[C@@H](C)O2`, the activity change, negative = cytotoxicity was -26.1% (inactive). With `COC(=O)N(C)C[C@H]1OCc2cn(nn2)CCCC(=O)N([C@@H](C)CO)C[C@@H]1C` the activity change, negative = cytotoxicity was -1.3% (inactive). With `C[C@H]1CN([C@@H](C)CO)S(=O)(=O)c2ccc(Br)cc2O[C@@H]1CN(C)C(=O)CCN1CCCCC1` the activity change, negative = cytotoxicity was 38.4% (inactive). With `COCC(=O)Nc1ccc2c(c1)OC[C@@H](C)N(C(=O)Cc1cccnc1)C[C@H](C)[C@@H](OC)CN(C)C2=O` the activity change, negative = cytotoxicity was -14.6% (inactive).

Same assay, conditions: HEK293T viability, ATP luminescence (CellTiter-Glo), 48 h; at 30 µM (top of the series)
In the case of `COCCN1C(=S)N[C@@H](c2ccccc2)C(C(=O)OC)=C1C`, the activity change, negative = cytotoxicity is reported as 28.9% (inactive). In the case of `COC(=O)C1=C(C)N(CC(C)C)C(=S)NC1c1ccc(Cl)cc1` (stereo not drawn), the activity change, negative = cytotoxicity is reported as -20.8% (inactive).

Same assay, conditions: HEK293T viability, ATP luminescence (CellTiter-Glo), 48 h; at 38 µM (top of the series)
For `CCCC(C)(C)C(=O)N1CCC1(C)C(=O)Nc1ccc(C)cc1` (stereo not drawn), the activity change, negative = cytotoxicity was -11.3% (inactive).
